# Experimental data taken from patent publication US6451820B1, “Substituted 1-(4-aminophenly)triazoles and their use as anti-inflammatory agents” (Boehringer Ingelheim Pharmaceuticals, Inc., priority 2000, dated 2002).
# Where two headings read alike, the source gives them in different places.
# System: IL-2 promoter/enhancer
# Test: IL-2 promoter assay (luciferase reporter in J.1F/C6 Jurkat cells)
# Assay type: cell-based
# Conditions: Homo sapiens
# Source text: The IL-2 promoter assay measures transcriptional activation of a luciferase reporter gene which has been placed under control of the IL-2 promoter/enhancer. All the known regulatory features of the IL-2 gene are contained within a ˜300 bp sequence immediately upstream of the open reading frame. The region −328 to +35 relative to the transcription start site of the IL-2 gene is obtained by […] of human genomic DNA and is subcloned into the promoterless luciferase reporter vector pGL2-Basic (Promega). The resulting construct, pIL2P-luc, and a vector containing a neomycin resistance gene, pcDNA/Neo (Invitrogen), are linearized and stably transfected into Jurkat cells (a human T cell line) by electroporation.
# For screening compounds, the cells are pelleted by centrifugation, washed once with PBS, resuspended in RPMI (phenol red-free) containing 5% FBS, and dispensed into 96-well, white microtiter plates (Packard) at 50,000 cells/well. The cells are pre-incubated with compounds (1 μg/ml) for 15 min prior to addition of ionomycin (1 μg/ml) and PMA (10 ng/ml) in a final volume of 100 μl. Following a 5 hr incubation at 37° C. in a humidified incubator, 100 μl of Luc-Lite lysis buffer/luciferase assay buffer (Promega) is added and luminescence measured using a Packard TopCount scintillation counter/luminometer.
# [1] = J.1F/C6 Jurkat cells stimulated with ionomycin and PMA, luciferase reporter, read-out: IC50
Structure (SMILES),IC50 [1],"IC50 (J.1F/C6 Jurkat cells treated with ionomycin and PMA, cell line validation, read-out: IC50, inhibition of luciferase activity)"
CSc1nc(-c2ccncc2)nn1-c1ccc(NC(=O)c2cccnc2)cc1 [Example 1],< 10 µM,–
"CSc1nc(-c2ccncc2)nn1-c1ccc(NCc2sccc2C)cc1 [Example 2, (3-Methylthien-2-ylmethyl)-[4-(5-methylthio-3-pyridin-4-yl-1H-1,2,4-triazol-1-yl)phenyl]amine]",< 10 µM,–
"C=CC[C@@H]1/C=C(\C)C[C@H](C)C[C@H](OC)[C@H]2O[C@@](O)(C(=O)C(=O)N3CCCC[C@H]3C(=O)O[C@H](/C(C)=C/[C@@H]3CC[C@@H](O)[C@H](OC)C3)[C@H](C)[C@@H](O)CC1=O)[C@H](C)C[C@@H]2OC [FK506, reference compound]",–,0.0003 µM
